Data as given in patent publication US20080102451A1, “Companion diagnostic assays for endothelin receptor antagonists” (Abbott Laboratories, priority 2006, published 2008).

Experiments:
OPG = test: ELISA for OPG secreted by MC3T3 osteoblast cells; type: cell-based, mouse; settings: MC3T3 cell line
Description: (§1) Mouse MC3T3 pre-osteoblastic cells (subclone 4) were purchased from ATCC (Manassis, Va.) and propagated in αMEM media without ascorbic acid (Invitrogen, Carlsbad, Calif.) supplemented with 10% FBS (Invitrogen). Human Mesenchymal Stem Cells (MSCs) were purchased from Cambrex (Walkersville, Md.) and propagated according in MSCGM™ media (Cambrex). To initiate differentiation of the MSC into human osteoblasts, the growth media was replaced by osteogenic differentiation medium (OGM, Cambrex).
(§2) Mouse preosteoblastic MC3T3 cells as well as primary human osteoblasts were treated with ET, from Sigma (St. Louis, Mo.), for 2, 4, and 6 hours in the absence or presence of the ETa receptor antagonist ABT-627, from Abbott Laboratories (Abbott Park, Ill.). The drug was added 1 hour prior to the addition of ET.
(§3) Mouse MC3T3 osteoblast cells were propagated as set out above, and at times indicated were harvested and spun at 250×g for 10 minutes at room temperature. The clarified supernatants were aliquoted and frozen until analyzed. 200 microliters of each sample was tested in quadruplicate by commercially available ELISA assay kits for PAI-1 (Molecular Innovations, Southfield, Mich.), OPG (Biomedica, San Diego, Calif.) and IL-6 (Ray Biotech, Norcross, Ga.). The ELISA tests were performed according to the manufacturer's instructions. […]

osteoblastic metastases = settings: mice injected with ET-1-secreting breast cancer cell lines; Yin et al. 2003; cited from earlier work
PAI-1 = test: ELISA for PAI-1 secreted by MC3T3 osteoblast cells; type: cell-based, mouse; settings: MC3T3 cell line
Description: as §1, §2, §3

IL-6 = test: ELISA for IL-6 secreted by MC3T3 osteoblast cells; type: cell-based, mouse; settings: MC3T3 cell line
Description: as §1, §2, §3

[1] = test system: Mouse MC3T3 pre-osteoblastic cells; test: Microarray analysis of gene expression in ET-treated mouse osteoblasts; type: cell-based; settings: for # Genes Blocked by ABT-627 (of genes down-regulated by ET) / # Genes Blocked by ABT-627 (of genes induced by ET): drug added 1 hour prior to ET
Description: as §1, §2
(§4) Total RNA was extracted from the treated cell lines and purified on RNeasy columns (Qiagen, Valencia, Calif.). Labeled cRNA was prepared according to the microarray manufacturer Affymetrix's protocol and hybridized to either mouse 430A 2.0 or human U133A 2.0 arrays (Affymetrix, Santa Clara, Calif.). Gene expression fold changes for each treatment were calculated by combining three biological replicates for each treatment using the Rosetta Resolver's Affymetrix error model software and building a ratio from the resulting values. All genes regulated ≧1.5-fold with a p-value of ≦0.01 were retained for further analysis. Conventional two-dimensional clustering was then performed by using the agglomerative hierarchical clustering algorithm. The Euclidean distance was used as the similarity metric.

[2] = test system: metastatic hormone-refractory prostate cancer; settings: patients with metastatic hormone-refractory prostate cancer; Nelson et al. 2003; cited from earlier work
[3] = test system: primary human osteoblasts; test: Microarray analysis of gene expression in ET-treated primary human osteoblasts; type: cell-based; settings: ET-1 treatment
Description: as §1, §2
as §4, with “All genes regulated ≧1.5-fold with a p-value of ≦0.01 were retained for further analysis. Conventional two-dimensional clustering was then performed by using the agglomerative hierarchical clustering algorithm. The Euclidean distance was used as the similarity metric.” left out

[4] = endothelin in the presence of ABT-627
[5] = mouse osteoblasts, time point 4 hr
[6] = mouse osteoblasts, time point 6 hr

SMILES: CCCCN(CCCC)C(=O)CN1C[C@H](c2ccc3c(c2)OCO3)[C@@H](C(=O)O)[C@@H]1c1ccc(OC)cc1 [ABT-627, (2R,3R,4S)-(+)-2-(4-Methoxyphenyl)-4-(1,3-benzodioxol-5-yl)-1-(N,N-di(n-butyl)aminocarbonylmethyl)-pyrrolidine-3-carboxylic acid]
- Endothelin-induced expression of OPG (ELISA) (OPG; [4]): substantial suppression
- Metastatic growth (osteoblastic metastases): suppressed the metastatic growth
- Endothelin-induced expression of PAI-1 (ELISA) (PAI-1; [4]): substantial suppression
- Endothelin-induced expression of IL-6 (ELISA) (IL-6; [4]): substantial suppression
- Induction by ET-1 of osteoblastic maturation genes (OPG, COX-2, Dmp1, Tgfbi, CTGF, Klf10) ([1]; osteoblastic cells, pre-treatment with ABT-627): blocked
- Induction by ET of apoptosis suppression genes (Nur77, Flt1, NFATc1) ([1]; osteoblastic cells, with ABT-627): the induction was blocked
- Genes Blocked by ABT-627 as percent of genes induced by ET ([1]; time point 2 hr): (96%)
- # Genes Blocked by ABT-627 (of genes down-regulated by ET) ([1]; time point 2 hr): 403
- # Genes Blocked by ABT-627 (of genes induced by ET) ([1]; time point 2 hr): 581
- Genes Blocked by ABT-627 as percent of genes induced by ET ([1]; time point 4 hr): (83%)
- # Genes Blocked by ABT-627 (of genes down-regulated by ET) ([1]; time point 4 hr): 262
- # Genes Blocked by ABT-627 (of genes induced by ET) ([1]; time point 4 hr): 390
- Genes Blocked by ABT-627 as percent of genes induced by ET ([1]; time point 6 hr): (97%)
- # Genes Blocked by ABT-627 (of genes down-regulated by ET) ([1]; time point 6 hr): 93
- # Genes Blocked by ABT-627 (of genes induced by ET) ([1]; time point 6 hr): 189
- Effect of pre-treatment on ET gene induction events ([1]; two-dimensional hierarchical clustering, all three timepoints): abrogated almost all of these gene induction events
- Gene expression changes caused by the antagonist alone ([1]; without ET): very few gene expression changes
- Time to disease progression [2]: extended time to disease progression

SMILES: CC[C@H](C)[C@H](NC(=O)[C@H](CC(=O)O)NC(=O)[C@H](CC(C)C)NC(=O)[C@H](Cc1c[nH]cn1)NC(=O)[C@@H]1CSSC[C@H](N)C(=O)N[C@@H](CO)C(=O)N[C@H]2CSSC[C@H](NC(=O)[C@H](CCC(=O)O)NC(=O)[C@H](CCCCN)NC(=O)[C@H](CC(=O)O)NC(=O)[C@H](CCSC)NC(=O)[C@H](CC(C)C)NC(=O)[C@H](CO)NC(=O)[C@H](CO)NC2=O)C(=O)N[C@@H](C(C)C)C(=O)N[C@@H](Cc2ccc(O)cc2)C(=O)N[C@@H](Cc2ccccc2)C(=O)N1)C(=O)N[C@H](C(=O)N[C@@H](Cc1c[nH]c2ccccc12)C(=O)O)[C@@H](C)CC [ET]
- Expression of OPG (ELISA) (OPG; treatment with endothelin): strongly induced
- Expression of PAI-1 (ELISA) (PAI-1; treatment with endothelin): strongly induced
- Expression of IL-6 (ELISA) (IL-6; treatment with endothelin): strongly induced
- Expression of genes coding for secreted proteins (PAI-1, uPA, TGFbeta2, IL-6, IL-8) [3]: strongly upregulated
- Expression of genes coding for secreted proteins (PAI-1, uPA, TGFbeta2, IL-6, IL-8) ([1]; mouse osteoblasts, ET-1 treatment): strongly upregulated
- # Genes Down-regulated by ET ([1]; mouse osteoblasts, time point 2 hr): 423
- # Genes Induced by ET ([1]; mouse osteoblasts, time point 2 hr, regulated >=1.5-fold, p<=0.01): 608
- # Genes Down-regulated by ET [1, 5]: 295
- # Genes Induced by ET [1, 5]: 472
- # Genes Down-regulated by ET [1, 6]: 95
- # Genes Induced by ET [1, 6]: 194
- Expression of apoptosis suppression genes (Nur77, Flt1, NFATc1) ([1]; osteoblastic cells, ET treatment): induced
